Assay results reported in patent publication US20260224524A1, “A PHARMACEUTICAL COMPOSITION TARGETING MUTANT P53 AND HER2” (DR DOZO LABORATORIES, priority 2023, published 2026).
In brackets after ≈: the same amount, converted by molar mass. Each block holds one compound with its values, some of them ahead of it.

Legend:
Assay type in all cases: cell-based
[1] = system: lung cancer cell; assay: Cell viability MTT assay of SACC fractions on lung cells; settings: 24 h, read-out: inhibitory concentrations, lung cancer cell growth
Description: The effect of SACC fractions (peak 2, peak 3, peak 4 and peak 5) on viability of lung cells was determined by MTT assay.
Cells were seeded in 96 wells plate at a density of 1×10^4 per well in 200 μL of respective complete culture medium containing 10% FBS and 1% antibiotics. After 70% confluency, cells were treated with the respective doses (indicated in the graph) of SACC and its fraction in complete culture medium for 24 h. After incubation for a specified time at 37° C. in a humidified incubator, dye MTT (5 mg/mL in PBS; diluted in 10 mL of serum-free medium) was added to each well and incubated for 2 h, after which the plate was centrifuged at 1,000 rpm for 5 min at 4° C. After careful removal of the medium, 0.1 mL buffered DMSO was added to each well. The absorbance was recorded on a microplate reader at the wavelength of 540 nm. The effect SACC and its fraction on cell growth inhibition was assessed as percent cell viability, where vehicle-treated cells were taken as 100% viable.

[2] = system: Human Breast Cancer Cell Line MDA-MB-231; assay: Growth inhibition (% control growth, LC50, TGI, GI50) MDA-MB-231
Description: The therapeutic effect of […] (peak 5) and SA2 (peak 4) is evaluated against human […] cancer cell line MDA-MB-231 by calculating the percentage growth inhibition, drug concentration of test compound needed to inhibit cell growth by 50% (GI50) values.
The therapeutic effect of SACC is evaluated against human […] cancer cell lines MDA-MB-231 by calculating the percentage growth inhibition, drug concentration of test compound needed to inhibit cell growth by 50% (GI50) values.

[3] = system: Human Lung Cancer Cell Line A-549; assay: Growth inhibition (% control growth, LC50, TGI, GI50) A-549; settings: A-549
Description: The therapeutic effect of SA1 (peak 5) and SA2 (peak 4) is evaluated against human lung cancer cell line A-549 by calculating the percentage growth inhibition, drug concentration of test compound needed to inhibit cell growth by 50% (GI50) values.
The therapeutic effect of SACC is evaluated against human lung cancer cell line A-549 by calculating the percentage growth inhibition, drug concentration of test compound needed to inhibit cell growth by 50% (GI50) values.

[4] = system: Human Pancreatic Cancer Cell Line Mia-Pa-Ca-2; assay: Growth inhibition (% control growth, LC50, TGI, GI50) Mia-Pa-Ca-2; settings: Mia-Pa-Ca-2
Description: The therapeutic effect of SA1 (peak 5) and SA2 (peak 4) is evaluated against human pancreatic cancer cell line Mia-Pa-Ca-2 by calculating the percentage growth inhibition, drug concentration of test compound needed to inhibit cell growth by 50% (GI50) values.
The therapeutic effect of SACC is evaluated against human […] cancer cell line Mia-Pa-Ca-2 by calculating the percentage growth inhibition, drug concentration of test compound needed to inhibit cell growth by 50% (GI50) values.

[5] = system: Human Breast Cancer Cell Line MDA-MB-231; assay: Growth inhibition (% control growth, LC50, TGI, GI50) MDA-MB-231; settings: Molar drug concentrations calculated from graph

- IC50 [1]: 1.06 µg/mL (≈ 6.05 µM)
SMILES: Cc1ccc2[nH]cc(C(=O)O)c2c1 (single isomer, unassigned) [peak 3, 5-methyl-1H-indole-3-carboxylic acid]

- IC50 [1]: 1.04 µg/mL (≈ 5.84 µM)
SMILES: O=C1CC2=CC(O)=CC(=O)C2=CO1 (single isomer, unassigned) [peak 2, 6-hydroxy-3H-isochromene-3, 8(4H)-dione]

- IC50 [1]: 1.02 µg/mL (≈ 8.09 µM)
SMILES: Cc1ccc(O)oc1=O (single isomer, unassigned) [SA2 (peak 4), 6-hydroxy-3-methyl-2H-pyran-2-one]
- % Control Growth ([2]; 10^−4M, Average Values): 27.9%
- % Control Growth ([2]; 10^−4M, Experiment 1): 50.1%
- % Control Growth ([2]; 10^−4M, Experiment 2): 18.1%
- % Control Growth ([2]; 10^−4M, Experiment 3): 15.5%
- % Control Growth ([2]; 10^−5M, Average Values): 47.2%
- % Control Growth ([2]; 10^−5M, Experiment 1): 45.5%
- % Control Growth ([2]; 10^−5M, Experiment 2): 42.0%
- % Control Growth ([2]; 10^−5M, Experiment 3): 54.1%
- % Control Growth ([2]; 10^−6M, Average Values): 62.8%
- % Control Growth ([2]; 10^−6M, Experiment 1): 68.2%
- % Control Growth ([2]; 10^−6M, Experiment 2): 59.7%
- % Control Growth ([2]; 10^−6M, Experiment 3): 60.5%
- % Control Growth ([2]; 10^−7M, Average Values): 57.0%
- % Control Growth ([2]; 10^−7M, Experiment 1): 81.0%
- % Control Growth ([2]; 10^−7M, Experiment 2): 42.6%
- % Control Growth ([2]; 10^−7M, Experiment 3): 47.3%
- GI50 ([2]; Homo sapiens, Molar drug concentrations calculated from graph): 2.38 µg/mL (≈ 18.9 µM)
- % Control Growth ([3]; 10^−4M, Average Values): 54.9%
- % Control Growth ([3]; 10^−4M, Experiment 1): 54.4%
- % Control Growth ([3]; 10^−4M, Experiment 2): 51.7%
- % Control Growth ([3]; 10^−4M, Experiment 3): 58.6%
- % Control Growth ([3]; 10^−5M, Average Values): 74.8%
- % Control Growth ([3]; 10^−5M, Experiment 1): 81.5%
- % Control Growth ([3]; 10^−5M, Experiment 2): 72.0%
- % Control Growth ([3]; 10^−5M, Experiment 3): 70.9%
- % Control Growth ([3]; 10^−6M, Average Values): 77.4%
- % Control Growth ([3]; 10^−6M, Experiment 1): 74.0%
- % Control Growth ([3]; 10^−6M, Experiment 2): 80.1%
- % Control Growth ([3]; 10^−6M, Experiment 3): 78.2%
- % Control Growth ([3]; 10^−7M, Average Values): 77.3%
- % Control Growth ([3]; 10^−7M, Experiment 1): 80.0%
- % Control Growth ([3]; 10^−7M, Experiment 2): 76.9%
- % Control Growth ([3]; 10^−7M, Experiment 3): 74.9%
- GI50 ([3]; Homo sapiens, A549, Molar drug concentrations calculated from graph): 0.0034 µg/mL (≈ 0.0269 µM)
- GI50 ([4]; Homo sapiens, MIA PaCa-2, Molar drug concentrations calculated from graph): 0.000301 µg/mL (≈ 0.00239 µM)
- % Control Growth ([4]; 10^−4M, Average Values): 40.5%
- % Control Growth ([4]; 10^−4M, Experiment 1): 40.0%
- % Control Growth ([4]; 10^−4M, Experiment 2): 36.6%
- % Control Growth ([4]; 10^−4M, Experiment 3): 45.0%
- % Control Growth ([4]; 10^−5M, Average Values): 100.5%
- % Control Growth ([4]; 10^−5M, Experiment 1): 76.9%
- % Control Growth ([4]; 10^−5M, Experiment 2): 116.3%
- % Control Growth ([4]; 10^−5M, Experiment 3): 108.3%
- % Control Growth ([4]; 10^−6M, Average Values): 112.4%
- % Control Growth ([4]; 10^−6M, Experiment 1): 114.3%
- % Control Growth ([4]; 10^−6M, Experiment 2): 115.6%
- % Control Growth ([4]; 10^−6M, Experiment 3): 107.5%
- % Control Growth ([4]; 10^−7M, Average Values): 102.1%
- % Control Growth ([4]; 10^−7M, Experiment 1): 95.4%
- % Control Growth ([4]; 10^−7M, Experiment 2): 111.8%
- % Control Growth ([4]; 10^−7M, Experiment 3): 99.0%
- TGI ([4]; Molar drug concentrations calculated from graph): 0.1054 µg/mL (≈ 0.836 µM)
- TGI [5]: 0.1727 µg/mL (≈ 1.37 µM)
